Reference: paper PMC8426418 (Therapeutic drug monitoring, 2021)
Several values for one entry are separate records, joined by “and”; a condition that tells them apart may be missing. Identical values can stand only once. Like-named read-outs stand apart in the source and are kept apart here.

How the values were obtained:
[1] = cited from earlier work
[2] = Steady-state plasma concentrations of BUP and metabolites in pregnancy; details: for Css (dose-normalized steady-state plasma concentration) / metabolite/BUP steady-state concentration ratio: geometric mean [range]; for steady-state concentration relative to BUP: pregnant women and postpartum
[3] = for change in formation clearance (CLf) during pregnancy compared to postpartum: T2 or T3 vs matched postpartum; for CLR (renal clearance) / CL renal: geometric mean [range]; for CL renal: female, human, urine and plasma, oral, CLR (renal clearance)
[4] = format: in vivo, human; details: at delivery, three subjects; for fetal to maternal ratio (umbilical cord venous plasma to maternal plasma concentration): steady-state; for maternal plasma steady-state concentration / umbilical cord venous plasma steady-state concentration: mean±SE
[5] = postpartum (PP) matched to T2, n=5
[6] = postpartum (PP) matched to T3, n=5

C[C@H]1NC(C)(C)CO[C@]1(O)c1cccc(Cl)c1 [OH-BUP, hydroxybupropion]
plasma concentration exceeding BUP concentration [1]: 3–30 fold | steady-state concentration relative to racemic BUP ([1]; non-pregnant subjects): 28 fold | Css (dose-normalized steady-state plasma concentration) [2, 5]: 16.3 [4.9–39.6] μM/g | Css (dose-normalized steady-state plasma concentration) [2, 6]: 13.3 [4.9–39.6] μM/g | Css (dose-normalized steady-state plasma concentration) ([2]; second trimester (T2), n=5): 15.1 [10.6–18.7] μM/g | Css (dose-normalized steady-state plasma concentration) ([2]; third trimester (T3), n=5): 16.5 [6.3–30.9] μM/g | steady-state concentration relative to BUP ([2]; this study): 28–33 fold and 30 fold | change in formation clearance (CLf) during pregnancy compared to postpartum [3]: no changes | CLR (renal clearance) [3, 5]: 0.10 [0.02–0.54] L/h | CLR (renal clearance) [3, 6]: 0.10 [0.03–0.46] L/h | CLR (renal clearance) ([3]; second trimester (T2), n=5): 0.20 [0.11–0.36] L/h | CLR (renal clearance) ([3]; third trimester (T3), n=5): 0.08 [0.04–0.12] L/h

C[C@H]1NC(C)(C)CO[C@]1(O)c1cccc(Cl)c1 [R,R-OH-BUP]
fetal to maternal ratio (umbilical cord venous plasma to maternal plasma concentration) [4]: 0.4±0.1 | maternal plasma steady-state concentration [4]: 19.1 ± 12.0 µM/g | umbilical cord venous plasma steady-state concentration [4]: 6.4 ± 3.1 µM/g | R,R-OH-BUP exposure relative to S,S-OH-BUP [1]: up to 65 fold | R,R-OH-BUP concentration relative to S,S-OH-BUP ([1]; non-pregnant subjects): 40–65 fold | Css (dose-normalized steady-state plasma concentration) [2, 5]: 15.9 [5.5–35.7] μM/g | metabolite/BUP steady-state concentration ratio [2, 5]: 32.5 [15.8–77.2] | Css (dose-normalized steady-state plasma concentration) [2, 6]: 14.0 [5.5–35.7] μM/g | metabolite/BUP steady-state concentration ratio [2, 6]: 35.6 [15.2–77.2] | Css (dose-normalized steady-state plasma concentration) ([2]; second trimester (T2), n=5): 15.8 [10.0–22.2] μM/g | metabolite/BUP steady-state concentration ratio ([2]; second trimester (T2), n=5): 43.8 [16.4–178.7] | Css (dose-normalized steady-state plasma concentration) ([2]; third trimester (T3), n=5): 13.7 [5.9–21.2] μM/g | metabolite/BUP steady-state concentration ratio ([2]; third trimester (T3), n=5): 33.7 [13.5–99.1] | R,R-OH-BUP steady-state concentration relative to S,S-OH-BUP ([2]; this study): 14–20 fold | CLR (renal clearance) [3, 5]: 0.08 [0.02–0.45] L/h | CLR (renal clearance) [3, 6]: 0.09 [0.03–0.35] L/h | CLR (renal clearance) ([3]; second trimester (T2), n=5): 0.15 [0.07–0.32] L/h | CLR (renal clearance) ([3]; third trimester (T3), n=5): 0.07 [0.05–0.09] L/h

C[C@@H]1NC(C)(C)CO[C@@]1(O)c1cccc(Cl)c1 [S,S-OH-BUP]
maternal plasma steady-state concentration [4]: 0.8 ± 0.6 µM/g | umbilical cord venous plasma steady-state concentration [4]: 0.4 ± 0.2 µM/g | Css (dose-normalized steady-state plasma concentration) [2, 5]: 0.78 [0.10–2.2] μM/g | metabolite/BUP steady-state concentration ratio [2, 5]: 1.5 [0.7–5.9] | Css (dose-normalized steady-state plasma concentration) [2, 6]: 0.64 [0.10–2.2] μM/g | metabolite/BUP steady-state concentration ratio [2, 6]: 1.6 [0.8–5.9] | Css (dose-normalized steady-state plasma concentration) ([2]; second trimester (T2), n=5): 0.73 [0.20–1.4] μM/g | metabolite/BUP steady-state concentration ratio ([2]; second trimester (T2), n=5): 2.2 [1.0–6.0] | Css (dose-normalized steady-state plasma concentration) ([2]; third trimester (T3), n=5): 0.83 [0.36–1.7] μM/g | metabolite/BUP steady-state concentration ratio ([2]; third trimester (T3), n=5): 1.9 [0.9–8.7] | CLR (renal clearance) [3, 5]: 0.35 [0.09–3.5] L/h | CLR (renal clearance) [3, 6]: 0.47 [0.09–3.5] L/h | CLR (renal clearance) ([3]; second trimester (T2), n=5): 0.93 [0.31–3.4] L/h | CLR (renal clearance) ([3]; third trimester (T3), n=5): 0.40 [0.24–0.72] L/h

C[C@H](NC(C)(C)C)[C@@H](O)c1cccc(Cl)c1 [Threo, threohydrobupropion]
fetal to maternal ratio (umbilical cord venous plasma to maternal plasma concentration) [4]: 0.7±0.1 | maternal plasma steady-state concentration [4]: 4.9 ± 5.3 µM/g | umbilical cord venous plasma steady-state concentration [4]: 3.7 ± 4.3 µM/g | plasma concentration exceeding BUP concentration [1]: 3–30 fold | steady-state concentration relative to racemic BUP ([1]; non-pregnant subjects): 5 fold | Css (dose-normalized steady-state plasma concentration) [2, 5]: 4.1 [1.2–10.8] μM/g | metabolite/BUP steady-state concentration ratio [2, 5]: 7.8 [3.5–17.6] | Css (dose-normalized steady-state plasma concentration) [2, 6]: 4.7 [1.2–10.8] μM/g | metabolite/BUP steady-state concentration ratio [2, 6]: 11.5 [9.7–17.6] | Css (dose-normalized steady-state plasma concentration) ([2]; second trimester (T2), n=5): 3.4 [1.8–6.7] μM/g | metabolite/BUP steady-state concentration ratio ([2]; second trimester (T2), n=5): 10.3 [4.8–23.1] | Css (dose-normalized steady-state plasma concentration) ([2]; third trimester (T3), n=5): 4.9 [3.1–10.7] μM/g | metabolite/BUP steady-state concentration ratio ([2]; third trimester (T3), n=5): 11.2 [5.6–16.6] | steady-state concentration relative to BUP ([2]; this study): 8–10 fold and 10 fold | change in formation clearance (CLf) during pregnancy compared to postpartum [3]: no changes | CLR (renal clearance) [3, 5]: 2.4 [0.55–17.6] L/h | CLR (renal clearance) [3, 6]: 2.9 [0.59–17.6] L/h | CLR (renal clearance) ([3]; second trimester (T2), n=5): 3.9 [1.7–8.6] L/h | CLR (renal clearance) ([3]; third trimester (T3), n=5): 2.0 [1.1–2.8] L/h

CC(NC(C)(C)C)C(O)c1cccc(Cl)c1 (stereo not drawn) [Erythro, erythrohydrobupropion]
maternal plasma steady-state concentration [4]: 0.5 ± 0.5 µM/g | umbilical cord venous plasma steady-state concentration [4]: 0.3 ± 0.3 µM/g | plasma concentration exceeding BUP concentration [1]: 3–30 fold | Css (dose-normalized steady-state plasma concentration) [2, 5]: 0.67 [0.25–1.7] μM/g | metabolite/BUP steady-state concentration ratio [2, 5]: 1.3 [0.5–3.2] | Css (dose-normalized steady-state plasma concentration) [2, 6]: 0.80 [0.25–1.7] μM/g | metabolite/BUP steady-state concentration ratio [2, 6]: 1.9 [1.2–3.2] | Css (dose-normalized steady-state plasma concentration) ([2]; second trimester (T2), n=5): 0.49 [0.33–0.78] μM/g | metabolite/BUP steady-state concentration ratio ([2]; second trimester (T2), n=5): 1.5 [0.4–4.2] | Css (dose-normalized steady-state plasma concentration) ([2]; third trimester (T3), n=5): 0.63 [0.52–0.79] μM/g | metabolite/BUP steady-state concentration ratio ([2]; third trimester (T3), n=5): 1.4 [0.6–2.7] | steady-state concentration relative to BUP ([2]; this study): similar | change in formation clearance (CLf) during pregnancy compared to postpartum [3]: no changes | CLR (renal clearance) [3, 5]: 1.6 [0.36–9.7] L/h | CLR (renal clearance) [3, 6]: 1.9 [0.36–9.7] L/h | CLR (renal clearance) ([3]; second trimester (T2), n=5): 2.1 [0.91–4.4] L/h | CLR (renal clearance) ([3]; third trimester (T3), n=5): 1.2 [0.74–1.7] L/h

CC(NC(C)(C)C)C(=O)c1cccc(Cl)c1 (stereo not drawn) [BUP, Bupropion, reference compound]
maternal plasma steady-state concentration [4]: 0.5 ± 0.2 µM/g | umbilical cord venous plasma steady-state concentration [4]: 0.2 ± 0.1 µM/g | Css (dose-normalized steady-state plasma concentration) [2, 5]: 0.53 [0.11–1.3] μM/g | Css (dose-normalized steady-state plasma concentration) [2, 6]: 0.41 [0.11–1.1] μM/g | Css (dose-normalized steady-state plasma concentration) ([2]; second trimester (T2), n=5): 0.33 [0.08–1.2] μM/g | Css (dose-normalized steady-state plasma concentration) ([2]; third trimester (T3), n=5): 0.44 [0.19–1.2] μM/g | CL renal ([3]; second trimester (T2), n=5): 40 mL/min | CL renal ([3]; third trimester (T3), n=5): 30 mL/min

C[C@@H](NC(C)(C)C)C(=O)c1cccc(Cl)c1 [R-BUP, R-bupropion, reference compound]
circulating concentration of R-BUP relative to S-BUP [1]: 3- to 6 fold

CC(NC(C)(C)C)C(=O)c1ccc(O)c(Cl)c1 (stereo not drawn) [4’OH-BUP, 4’-hydroxy-bupropion]
change in formation clearance (CLf) during pregnancy compared to postpartum [3]: no changes
